Experimental findings from patent publication US20050282824A1, “Substituted pyrimidines as inhibitors of bacterial type III protein secretion systems” (priority 2004, published 2005) are described below.

Broadly, the IC50 is the concentration that gives 50% inhibition.

For the first test, the system named is Type III protein secretion of ExoU by P. aeruginosa PA103. Kind of test: Tertiary assay: Type III-dependent secretion of ExoU by P. aeruginosa PA103. Conditions: Pseudomonas aeruginosa, read-out: ExoU IC50(uM). The format is cell-based. An excerpt:
Tertiary assay: inhibition of Type III protein secretion of effectors from a Pseudomonas aeruginosa system. Type III protein secretion is used by P. aeruginosa to secrete several essential virulence determinants. One effector of the type III protein secretion system of P. aeruginosa PA 103 is the virulence determinants ExoU.
The amount of Type III-dependent secretion of ExoU by P. aeruginosa PA103 can be determined in a cell-based assay by quantification of the 73.9 kDa ExoU protein secreted into the extracellular medium. Such quantitation can be achieved by growing strain PA 103 in a deferrated medium in the presence of nitrilotriacetic acid (an inducer of Type III protein secretion in P. aeruginosa) and either in the presence or absence of putative inhibitors. After a prolonged growth period, the cells are sedimented and the supernatants concentrated by ammonium sulfate precipitation. The proteins in the resuspended pellets are separated by electrophoresis on SDS-polyacrylamide gels. After staining gels with Colloidal Blue™, the 73.9 kDa ExoU band is quantitated by scanning through an imager. The effects of inhibitors on the intensity of the ExoU band may be measured relative to that of untreated controls.
For `Cc1cc(C(=O)N[C@@H](CSCc2ccccc2)C(=O)O)nc(N2CCC(c3ccccc3)CC2)n1` [Compound 2, (R)-3-Benzylsulfanyl-2-{[6-methyl-2-(4-phenylpiperidin-1-yl)pyrimidine-4-carbonyl]amino}propionic acid], the IC50 is > 100 µM.
On to `O=C(N[C@H](Cc1ccc(Cl)cc1)C(=O)O)c1cc(N2CCCc3ccccc32)nc(-c2ccc(-c3ccccc3)cc2)n1` [Compound 33, (R)-2-{[2-Biphenyl-4-yl-6-(3,4-dihydro-2H-quinolin-1-yl)pyrimidine-4-carbonyl]amino}-3-(4-chlorophenyl)propionic acid], for which the IC50 came out at 24.4 µM.
The same measure, in the same setting: the value for `O=C(N[C@H](Cc1ccc(Cl)cc1)C(=O)O)c1cc(N2CCCCC2)nc(-c2ccc(-c3ccccc3)cc2)n1` [Compound 34, (R)-2-[(2-Biphenyl-4-yl-6-piperidin-1-yl-pyrimidine-4-carbonyl)amino]-3-(4-chlorophenyl)propionic acid] was 71 µM.
Same read-out and setting: the value for `CC1CCN(c2nc(C(=O)N[C@@H](CSCc3ccccc3)C(=O)O)cc(N3CCN(c4ccccn4)CC3)n2)CC1` [Compound 64, (R)-3-Benzylsulfanyl-2-{[2-(4-methylpiperidin-1-yl)-6-(^4-pyridin-2-yl-piperazin-1-yl)pyrimidine-4-carbonyl]amino}propionic acid] was 18.9 µM.
Same read-out and setting: the same measure for `O=C(N[C@@H](COCc1ccccc1)C(=O)O)c1cc(N2CCN(c3ccccn3)CC2)nc(N2CCN(c3ccccn3)CC2)n1` [Compound 65, (S)-3-Benzyloxy-2-{[2,6-bis-(4-pyridin-2-yl-piperazin-1-yl)pyrimidine-4-carbonyl]-amino}propionic acid]: 38.4 µM.
Take `O=C(N[C@@H](CSCc1ccccc1)C(=O)O)c1cc(N2CCN(c3ccccn3)CC2)nc(N2CCN(c3ccccn3)CC2)n1` [Compound 66, (R)-3-Benzylsulfanyl-2-{[2,6-bis-(4-pyridin-2-yl-piperazin-1-yl)pyrimidine-4-carbonyl]amino}propionic acid]: the IC50 stood at 52.8 µM.
The same measure, in the same setting: the value for `O=C(NC(Cc1ccc(Cl)cc1)C(=O)O)c1cc(N2CCN(c3ccccn3)CC2)nc(N2CCN(c3ccccn3)CC2)n1` (stereo not drawn) [Compound 67, 2-{[2,6-Bis-(4-pyridin-2-yl-piperazin-1-yl)pyrimidine-4-carbonyl]amino}-3-(4-chlorophenyl)propionic acid] was 65.6 µM.
For the molecule `O=C(NC(Cc1ccc(Cl)cc1)C(=O)O)c1cc(N2CCN(c3ccccn3)CC2)nc(-c2ccc([N+](=O)[O-])cc2)n1` (stereo not drawn) [Compound 68, 3-(4-Chlorophenyl)-2-{[2-(4-nitrophenyl)-6-(4-pyridin-2-yl-piperazin-1-yl)-pyrimidine-4-carbonyl]amino}propionic acid], the IC50 amounted to 21.1 µM.
As to `CN(C)c1ccc(-c2nc(C(=O)N[C@@H](COCc3ccccc3)C(=O)O)cc(N3CCN(c4ccccn4)CC3)n2)cc1` [Compound 69, (S)-3-Benzyloxy-2-{[2-(4-dimethylaminophenyl)-6-(4-pyridin-2-yl-piperazin-1-yl)-pyrimidine-4-carbonyl]amino}propionic acid], the IC50 is > 100 µM.
On the same count and under the same terms, the value for `CN(C)c1ccc(-c2nc(C(=O)NC(Cc3ccc(Cl)cc3)C(=O)O)cc(N3CCN(c4ccccn4)CC3)n2)cc1` (stereo not drawn) [Compound 70, 3-(4-Chlorophenyl)-2-{[2-(4-dimethylaminophenyl)-6-(4-pyridin-2-yl-piperazin-1-yl)pyrimidine-4-carbonyl]amino}propionic acid] was 29.8 µM.
On the same count and under the same terms, the same measure for `O=C(N[C@@H](COCc1ccccc1)C(=O)O)c1cc(N2CCN(c3ccccn3)CC2)nc(-c2cccs2)n1` [Compound 71, (S)-3-Benzyloxy-2-{[6-(4-pyridin-2-yl-piperazin-1-yl)-2-thiophen-2-yl-pyrimidine-4-carbonyl]amino}propionic acid]: > 50 µM.
Still for that read-out and setting: the same measure for `O=C(N[C@@H](CSCc1ccccc1)C(=O)O)c1cc(N2CCN(c3ccccn3)CC2)nc(-c2ccoc2)n1` [Compound 72, (R)-3-Benzylsulfanyl-2-{[2-furan-3-yl-6-(4-pyridin-2-yl-piperazin-1-yl)pyrimidine-4-carbonyl]amino}propionic acid]: > 50 µM.
`O=C(N[C@@H](COCc1ccccc1)C(=O)O)c1cc(N2CCN(c3ccccn3)CC2)nc(-c2ccoc2)n1` [Compound 73, (S)-3-Benzyloxy-2-{[2-furan-3-yl-6-(4-pyridin-2-yl-piperazin-1-yl)pyrimidine-4-carbonyl]amino}propionic acid]: the IC50 was > 50 µM.
The same measure, in the same setting: the same measure for `CC1CCN(c2cc(C(=O)N[C@@H](CSCc3ccccc3)C(=O)O)nc(N3CCN(c4ccccn4)CC3)n2)CC1` [Compound 74, (R)-3-Benzylsulfanyl-2-{[6-(4-methylpiperidin-1-yl)-2-(4-pyridin-2-yl-piperazin-1-yl)pyrimidine-4-carbonyl]amino}propionic acid]: > 50 µM.
Regarding `CN1CCN(c2cc(C(=O)N[C@@H](CSCc3ccccc3)C(=O)O)nc(N3CCN(c4ccccn4)CC3)n2)CC1` [Compound 75, (R)-3-Benzylsulfanyl-2-{[6-(4-methyl-piperazin-1-yl)-2-(4-pyridin-2-yl-piperazin-1-yl)pyrimidine-4-carbonyl]amino}propionic acid], the IC50 is > 100 µM.
Still for that read-out and setting: the same measure for `CN1CCN(c2cc(C(=O)N[C@@H](COCc3ccccc3)C(=O)O)nc(N3CCN(c4ccccn4)CC3)n2)CC1` [Compound 76, (S)-3-Benzyloxy-2-{[6-(4-methyl-piperazin-1-yl)-2-(4-pyridin-2-yl-piperazin-1-yl)-pyrimidine-4-carbonyl]amino}propionic acid]: > 50 µM; for `O=C(N[C@@H](CSCc1ccccc1)C(=O)O)c1cc(N2CCC(Cc3ccccc3)CC2)nc(-c2ccc(C(F)(F)F)cc2)n1` [Compound 77, (R)-2-{[6-(4-Benzylpiperidin-1-yl)-2-(4-trifluoromethylphenyl)pyrimidine-4-carbonyl]amino}3-benzylsulfanylpropionic acid]: 92.8 µM; for `O=C(N[C@@H](CSCc1ccccc1)C(=O)O)c1cc(N2CCC(Cc3ccccc3)CC2)nc(-c2ccc(Cl)cc2)n1` [Compound 78, (R)-2-{[6-(4-Benzylpiperidin-1-yl)-2-(4-chlorophenyl)pyrimidine-4-carbonyl]-amino}-3-benzylsulfanylpropionic acid]: 42.4 µM.
Same read-out and setting: the same measure for `O=C(NC(Cc1ccc(Cl)cc1)C(=O)O)c1cc(N2CCC(Cc3ccccc3)CC2)nc(-c2ccc(Cl)cc2)n1` (stereo not drawn) [Compound 79, 2-{[6-(4-Benzylpiperidin-1-yl)-2-(4-chlorophenyl)pyrimidine-4-carbonyl]amino}-3-(4-chlorophenyl)propionic acid]: 64 µM.

The subject of a further test is SPI1 type III protein secretion of SopE'-'Bla by Salmonella enterica. As to the kind of experiment: Primary assay: Type III protein secretion of the chimeric SopE'-'Bla polypeptide by Salmonella enterica. Format: cell-based. Conditions: read-out: SopE IC50(uM). An excerpt: Primary assay: Type III protein secretion of the chimeric SopE′-′Bla polypeptide by Salmonella enterica. This procedure is a cell-based assay that measures the type III-dependent secretion by Salmonella enterica of a plasmid-encoded chimeric polypeptide whose synthesis can be regulated, and which is endowed with an enzymatic activity that can be monitored […] by hydrolysis of a substrate that is unable to penetrate into the bacterial cytoplasm within the time constraints of the reaction. Thus, the colorimetric reaction is not influenced by SopE′-′Bla polypeptide in the bacterial cytoplasm. Instead, it effectively measures the amount of polypeptide that has been secreted from the S. enterica cytoplasm to the extracellular medium via type III system protein secretion.
The SopE′-′Bla recombinant polypeptide consists of two functionally distinct domains spliced together. The N-terminus domain is encoded by a polynucleotide region specifying the signal for type III secretion of the SopE polypeptide of S. enterica, an effector of the SPI1 type III protein secretion system. The C-terminus domain of SopE′-′Bla consists of a 263 amino acid peptide sequence that corresponds to the TEM-1 β-lactamase expressed by plasmid pBR322 but without its N-terminal signal sequence. The TEM-1 β-lactamase part of the SopE′-′Bla chimeric polypeptide is used as a reporter enzyme. It is capable of hydrolyzing nitrocefin resulting in a product whose accumulation can be monitored by colorimetric detection. The secretion of the SopE′-′Bla chimeric polypeptide from the cytoplasm to the extracellular medium is dependent on type III protein secretion.
For this procedure, cells grown under conditions known to favor a functional SPI1 secretion system are induced for expression of the SopE′-′Bla protein and grown either in the presence or in the absence of putative inhibitors for determined time. Nitrocefin is then added to the various cultures and its hydrolysis are used for quantitation. An inhibitor of Type III protein secretion is generally a compound that reduces the signal of the enzymatic reaction by decreasing the amount of SopE′-′Bla secreted into the extracellular medium.
Take `Cc1cc(C(=O)N[C@@H](CSCc2ccccc2)C(=O)O)nc(N2CCC(c3ccccc3)CC2)n1` [Compound 2, (R)-3-Benzylsulfanyl-2-{[6-methyl-2-(4-phenylpiperidin-1-yl)pyrimidine-4-carbonyl]amino}propionic acid]: the IC50 was found to be 34.2 µM.
On to `O=C(N[C@H](Cc1ccc(Cl)cc1)C(=O)O)c1cc(N2CCc3ccccc3C2)nc(Cl)n1` [Compound 5, (R)-2-{[2-Chloro-6-(3,4-dihydro-1H-isoquinolin-2-yl)pyrimidine-4-carbonyl]amino}-3-(4-chlorophenyl)propionic acid], for which the IC50 came out at 32.7 µM.
The same measure, in the same setting: the value for `O=C(N[C@H](Cc1ccc(Cl)cc1)C(=O)O)c1cc(N2CCc3ccccc3C2)nc(-c2ccc(F)cc2)n1` [Compound 9, (R)-3-(4-Chlorophenyl)-2-{[6-(3,4-dihydro-1H-isoquinolin-2-yl)-2-(4-fluoro-phenyl)Pyrimidine-4-carbonyl]amino}propionic acid] was 8 µM; that for `O=C(N[C@@H](CSCc1ccccc1)C(=O)O)c1cc(N2CCCCC2)nc(N2CCC(c3ccccc3)CC2)n1` [Compound 29, (R)-3-Benzylsulfanyl-2-{[2-(4-phenylpiperidin-1-yl)-6-piperidin-1-yl-pyrimidine-4-carbonyl]amino}propionic acid] was 3.2 µM; that for `CN1CCN(c2nc(C(=O)N[C@@H](COCc3ccccc3)C(=O)O)cc(N3CCN(c4nccc(C(F)(F)F)n4)CC3)n2)CC1` [Compound 45, (S)-3-Benzyloxy-2-({2-(4-methyl-piperazin-1-yl)-6-[4-(4-trifluoromethylpyrimidin-2-yl)piperazin-1-yl]pyrimidine-4-carbonyl}amino)propionic acid] was 60.7 µM.
